Measurements from patent US12162848B2, “Inhibitors of protein tyrosine phosphatase, compositions, and methods of use” (BRISTOL-MYERS SQUIBB COMPANY, priority 2022, dated 2024).
pEC50, pIC50: −log10 of the molar value.

Assays:
[1] = test system: B16-F10 cells; test: Cell proliferation assay (CellTiter-Glo) in IFN-gamma treated B16-F10 cells; format: cell-based; conditions: 120 h, mouse IFN-gamma 10 ng/mL, read-out: PTPN2 Prolif 5d B16F10 EC50
Procedure: B16-F10 cells (ATCC, Manassas, VA, #CRL-6475) were cultured in DMEM growth medium (ThermoFisher Scientific, Waltham, MA, #11995-040) supplemented with 10% heat inactivated FBS (ThermoFisher Scientific, #16140-071) and 1% pen/strep (ThermoFisher Scientific, #15140-122). The cells were seeded into two white opaque 384-well tissue culture treated microplates (PerkinElmer, Waltham, MA, #6007688) at a density of 100 cells/well in 20 uL total volume and incubated overnight at 37 C and 5% CO2. 30 nL of compounds dissolved in DMSO were then transferred from a source plate into target wells with the Echo650 acoustic liquid handler (Beckman Coulter, Indianapolis, IN). Negative control wells received 30 nL of DMSO only (0.15% final concentration). Plates were returned to the incubator for 1 hour and then cells treated with either 5 uL of growth medium or 5 uL of growth medium containing 50 ng/mL of recombinant mouse IFN-gamma protein (R&D Systems, Minneapolis, MN, #485-MI/CF, 10 ng/mL final concentration) using the Assist automated pipetting platform (INTEGRA Biosciences, Hudson, NH). Plates were incubated at 37 C for 4 days and cell proliferation assayed with the CellTiter-Glo reagent (Promega, Madison, WI, #G7573, 25 uL per well). […] Off-target compound mediated cytotoxicity was identified by checking for growth inhibition in the absence of IFNg.

[2] = test system: phosphorylated STAT1 protein levels in B16-F10 cells; test: Phospho-STAT1 (Tyr701) HTRF assay in IFN-gamma treated B16-F10 cells; format: cell-based; conditions: mouse IFN-gamma 100 ng/mL, 1 hour, read-out: pSTAT1 HTRF B16 EC50
Procedure: B16-F10 cells (ATCC, Manassas, VA, #CRL-6475) were cultured in DMEM growth medium (ThermoFisher Scientific, Waltham, MA, #11995-040) supplemented with 10% heat inactivated FBS (ThermoFisher Scientific, #16140-071) and 1% pen/strep (ThermoFisher Scientific, #15140-122). The cells were seeded into a white opaque 384-well tissue culture treated microplate (PerkinElmer, Waltham, MA, #6007688) at a density of 10,000 cells/well in 20 uL total volume and incubated overnight at 37 C and 5% CO2. 30 nL of compounds dissolved in DMSO were then transferred from a source plate into target wells with the Echo650 acoustic liquid handler (Beckman Coulter, Indianapolis, IN). Negative control wells received 30 nL of DMSO only (0.15% final concentration). Plates were returned to the incubator for 1 hour and then cells treated with either 5 uL of growth medium or 5 uL of growth medium containing 500 ng/mL of recombinant mouse IFN-gamma protein (R&D Systems, Minneapolis, MN, #485-MI/CF, 100 ng/mL final concentration) using the Assist automated pipetting platform (INTEGRA Biosciences, Hudson, NH). Plates were incubated at 37 C for 1 hour and assayed for phosphorylated STAT1 protein levels with the phospho-STAT1 (Tyr701) HTRF kit (Cisbio, Bedford, MA, #63ADK026PEH) according to manufacturer's instructions.

[3] = molecular target: T1, PTPN2 enzyme (Homo sapiens, UniProt P17706); test: PhosphoSens PTPN2 biochemical assay; conditions: substrate AQT0264 20 μM, room temperature; read-out: PTPN2 BCHEM IC50
T1 sequence (P17706 1-415): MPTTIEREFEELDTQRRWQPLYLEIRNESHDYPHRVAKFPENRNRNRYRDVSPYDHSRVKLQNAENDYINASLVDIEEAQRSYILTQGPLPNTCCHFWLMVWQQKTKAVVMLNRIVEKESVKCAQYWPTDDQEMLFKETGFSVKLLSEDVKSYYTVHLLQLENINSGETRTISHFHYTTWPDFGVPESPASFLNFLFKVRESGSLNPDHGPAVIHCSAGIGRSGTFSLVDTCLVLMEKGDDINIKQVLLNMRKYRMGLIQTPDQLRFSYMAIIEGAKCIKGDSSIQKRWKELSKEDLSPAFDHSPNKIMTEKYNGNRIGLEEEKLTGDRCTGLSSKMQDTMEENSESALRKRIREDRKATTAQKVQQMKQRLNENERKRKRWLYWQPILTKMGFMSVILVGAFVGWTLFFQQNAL
Procedure: A PhosphoSens® kinase assay was performed as described by the vendor (AssayQuant Technologies, Marlborough, MA). Briefly, 1000×solutions of compounds were prepared in DMSO via serial dilution of the 10 mM DMSO stocks using 3-fold intervals in a 384-well reagent plate. 50 nL of the compound dilution series was then added to the corresponding wells of a 384-well assay plate. […] of 1.25×substrate (AQT0264) in 1× assay buffer (50 mM HEPES pH 7.5, 500 μM EGTA, […] MgCl2, 0.01% Brij-35, 1% Glycerol, 1 mM DTT, and 0.2 mg/mL BSA) was transferred to each well of the assay plate to achieve a final substrate concentration of 20 μM. Finally, […] of 5×PTPN2 enzyme stock was added to each well of the assay plate for a final enzyme concentration of […]. Reaction progress curves were collected by sampling fluorescence intensity at the excitation wavelength 360 nm (λex360) and emission wavelength 480 nm (λem480) every 71 seconds for one hour using a Synergy H4 plate reader (BioTek Instruments/Agilent Technologies, Winooski, VT) at room temperature.

SMILES | pEC50 [1] | pEC50 [2] | pIC50 [3]
COc1cncc(-c2cc(O)c(N3CC(=O)NS3(=O)=O)c(F)c2)c1 [EXAMPLE 28, 5-[2-fluoro-6-hydroxy-4-(5-methoxy-3-pyridyl)phenyl]-1,1-dioxo-1,2,5-thiadiazolidin-3-one] | 5.11 | ≤ 4.82 | 7.05
CS(=O)(=O)N1CCC[C@H](NCc2cc(O)c(N3CC(=O)NS3(=O)=O)c(F)c2)C1 [EXAMPLE 75, 5-[2-fluoro-6-hydroxy-4-[[[(3S)-1-methylsulfonyl-3-piperidyl]amino]methyl]phenyl]-1,1-dioxo-1,2,5-thiadiazolidin-3-one] | 5.66 | 5.49 | 7.43
COCCN1CCN(c2cc(O)c(N3CC(=O)NS3(=O)=O)c(F)c2)CC1 [EXAMPLE 86, 5-(2-fluoro-6-hydroxy-4-(4-(2-methoxyethyl)piperazin-1-yl)phenyl)-1,2,5-thiadiazolidin-3-one 1,1-dioxide] | ≤ 4.82 | ≤ 4.82 | 6.47
O=C1CN(c2c(O)cc(N3CCNCC3)cc2F)S(=O)(=O)N1 [EXAMPLE 85, 5-(2-fluoro-6-hydroxy-4-(piperazin-1-yl)phenyl)-1,2,5-thiadiazolidin-3-one 1,1-dioxide] | ≤ 4.82 | 5.26 | 6.17
CNC(=O)[C@H]1CC[C@H](NCc2cc(O)c(N3CC(=O)NS3(=O)=O)c(F)c2)CC1 [EXAMPLE 58, (1r,4r)-4-((4-(1,1-dioxido-4-oxo-1,2,5-thiadiazolidin-2-yl)-3-fluoro-5-hydroxybenzyl)amino)-N-methylcyclohexane-1-carboxamide] | ≤ 4.82 | 5.29 | 6.42
O=C1CN(c2c(O)cc(-c3ccc(C4CC4)cc3)cc2F)S(=O)(=O)N1 [EXAMPLE 17, 5-[4-(4-cyclopropylphenyl)-2-fluoro-6-hydroxy-phenyl]-1,1-dioxo-1,2,5-thiadiazolidin-3-one] | ≤ 4.82 | 5.10 | 5.85
CCN1CCC(NCc2cc(O)c(N3CC(=O)NS3(=O)=O)c(F)c2)CC1 [EXAMPLE 40, 5-(4-(((1-ethylpiperidin-4-yl)amino)methyl)-2-fluoro-6-hydroxyphenyl)-1,2,5-thiadiazolidin-3-one 1,1-dioxide] | 5.49 | 5.63 | 6.88
O=C1CN(c2c(O)cc(CN[C@H]3CCCOC3)cc2F)S(=O)(=O)N1 [EXAMPLE 67, (S)-5-(2-fluoro-6-hydroxy-4-(((tetrahydro-2H-pyran-3-yl)amino)methyl)phenyl)-1,2,5-thiadiazolidin-3-one 1,1-dioxide] | 5.78 | 5.57 | 6.90
CC(C)CCN1CCCC(c2cc(O)c(N3CC(=O)NS3(=O)=O)c(F)c2)C1 (stereo not drawn) [EXAMPLE 5, 5-(2-fluoro-6-hydroxy-4-(1-isopentylpiperidin-3-yl)phenyl)-1,2,5-thiadiazolidin-3-one 1,1-dioxide] | ≤ 4.82 | ≤ 4.82 | 5.99
O=C1CN(c2c(O)cc(-c3cccc(-c4ccccc4)c3)cc2F)S(=O)(=O)N1 [EXAMPLE 11, 5-[2-fluoro-6-hydroxy-4-(3-phenylphenyl)phenyl]-1,1-dioxo-1,2,5-thiadiazolidin-3-one] | ≤ 4.82 | ≤ 4.82 | 5.87
O=C1CN(c2c(O)cc(CN[C@H]3CCCN(S(=O)(=O)C4CC4)C3)cc2F)S(=O)(=O)N1 [EXAMPLE 73, 5-[4-[[[(3S)-1-cyclopropylsulfonyl-3-piperidyl]amino]methyl]-2-fluoro-6-hydroxy-phenyl]-1,1-dioxo-1,2,5-thiadiazolidin-3-one] | 5.01 | 5.11 | 8.00
O=C1CN(c2c(O)cc(C3CCCNC3)cc2F)S(=O)(=O)N1 (stereo not drawn) [EXAMPLE 1, 5-(2-fluoro-6-hydroxy-4-(piperidin-3-yl)phenyl)-1,2,5-thiadiazolidin-3-one 1,1-dioxide] | 6.05 | 5.89 | 6.92
O=C1CN(c2c(O)cc(CN3CCC(O)CC3)cc2F)S(=O)(=O)N1 [EXAMPLE 52, 5-[2-fluoro-6-hydroxy-4-[(4-hydroxy-1-piperidyl)methyl]phenyl]-1,1-dioxo-1,2,5-thiadiazolidin-3-one] | 5.16 | 5.34 | 6.94
CN(C)c1ccc(-c2cc(O)c(N3CC(=O)NS3(=O)=O)c(F)c2)cn1 [EXAMPLE 29, 5-[4-[6-(dimethylamino)-3-pyridyl]-2-fluoro-6-hydroxy-phenyl]-1,1-dioxo-1,2,5-thiadiazolidin-3-one] | ≤ 4.82 | ≤ 4.82 | 7.05
COc1ccc(-c2cc(O)c(N3CC(=O)NS3(=O)=O)c(F)c2)cn1 [EXAMPLE 23, 5-[2-fluoro-6-hydroxy-4-(6-methoxy-3-pyridyl)phenyl]-1,1-dioxo-1,2,5-thiadiazolidin-3-one] | ≤ 4.82 | ≤ 4.82 | 6.85
CN(C)CC1CCN(Cc2cc(O)c(N3CC(=O)NS3(=O)=O)c(F)c2)CC1 [EXAMPLE 56, 5-[4-[[4-[(dimethylamino)methyl]-1-piperidyl]methyl]-2-fluoro-6-hydroxy-phenyl]-1,1-dioxo-1,2,5-thiadiazolidin-3-one] | ≤ 4.82 | ≤ 4.82 | 6.65
O=C1CN(c2c(O)cc(-c3cnc4ccccc4c3)cc2F)S(=O)(=O)N1 [EXAMPLE 24, 5-[2-fluoro-6-hydroxy-4-(3-quinolyl)phenyl]-1,1-dioxo-1,2,5-thiadiazolidin-3-one] | ≤ 4.82 | ≤ 4.82 | 6.72
O=C1CN(c2c(O)cc(CN[C@H]3CCCNC3)cc2F)S(=O)(=O)N1 [EXAMPLE 65, (S)-5-(2-fluoro-6-hydroxy-4-((piperidin-3-ylamino)methyl)phenyl)-1,2,5-thiadiazolidin-3-one 1,1-dioxide] | 5.16 | 5.28 | 6.89
CC(C)CC(=O)N1CCN(Cc2cc(O)c(N3CC(=O)NS3(=O)=O)c(F)c2)CC1 [EXAMPLE 36, 5-(2-fluoro-6-hydroxy-4-((4-(3-methylbutanoyl)piperazin-1-yl)methyl)phenyl)-1,2,5-thiadiazolidin-3-one 1,1-dioxide] | ≤ 4.82 | ≤ 4.82 | 7.10
CC(C)CCN1CCC[C@H](NCc2cc(O)c(N3CC(=O)NS3(=O)=O)c(F)c2)C1 [EXAMPLE 63, 5-[2-fluoro-6-hydroxy-4-[[[(3S)-1-isopentyl-3-piperidyl]amino]methyl]phenyl]-1,1-dioxo-1,2,5-thiadiazolidin-3-one] | ≤ 4.82 | ≤ 4.82 | 6.82
